Source: patent US9005644B2, “Pesticidal compositions” (BASF Corporation, priority 2008, dated 2015)
Several values for one entry are separate records, joined by “and”; a condition that tells them apart may be missing. Equal values may be shown once.

How the values were obtained:
German cockroaches = assay: Topical toxicity evaluation on adult German cockroaches, mortality (dead/moribund) at 24 hours; type: in vivo, Blattella germanica (German cockroach); details: for # dead at 24 h / Proportion dead at 24 h: amounts in label
Procedure: Toxicity evaluations were performed on 7-14 day old adult male and female German cockroaches (SCJ Strain, S.C. Johnson & Son, Racine, Wis.). Approximately 12 cockroaches were transferred to individual 100×20 mm polystyrene Petri dishes and anesthetized with a 15-25 second exposure to carbon dioxide. The inside edge of each Petri dish was lightly coated with mineral oil plus petroleum jelly in a 1:3 (wt/wt) ratio to minimize escape. Anesthetized cockroaches were positioned with their ventral side up, and a 1 μl drop of the diluted test composition was applied to the area between the meso- and metathoracic legs using a Rainin L-10, 10 μl capacity pipette (Rainin Instrument, LLC, Oakland, Calif.). Five replications of 12 male cockroaches were done for each test composition. Separate tests were done using female cockroaches. Results were evaluated at 24 hours following treatment. Cockroaches were scored as either alive (dorsal side up, active movement when abdomen prodded with dissecting probe) or moribund/dead (dorsal side up and no movement when abdomen prodded or ventral side up and insect unable to right itself).
The compositions comprising alcohol and/or mineral oil are described in Table 13.

cockroaches = assay: LD50 and LD10 determination for cockroaches (dose-response mortality, probit analysis); type: in vivo; details: for LD10 mg/insect / LD50 mg/insect: cockroaches, probit analysis
Procedure: In this example, various mineral oils and alcohols were tested to determine, for cockroaches, the LD50 and LD10 for each.
PD23 and PD28 mineral oils were obtained from Sonneborn LLC, Mahwah, N.J. The physical properties of these oils are shown in Table 11. Each mineral oil was tested to determine the LD50 and LD10 (Table 12).
The tested alcohols were obtained from Sigma-Aldrich Corp., St. Louis, Mo. Each alcohol was tested to determine the LD50 and LD10 (Table 12).

[1] = Table 18, Exxsol D95 mineral oil
[2] = Table 3, male cockroaches, remainder acetone, per replicate

Molecule	# dead at 24 h (German cockroaches; Table 13, per replicate (# treated 10-16), listed as 1-butanol (0.8 mg))	Proportion dead at 24 h (German cockroaches; Table 13, per replicate, listed as 1-butanol (0.8 mg))	# dead at 24 h (German cockroaches; Table 14, composite data)	Proportion dead at 24 h (German cockroaches; Table 14, composite data)	LD10 mg/insect (cockroaches)	LD50 mg/insect (cockroaches)	# dead at 24 h (German cockroaches; Table 13, per replicate (# treated 10-16), listed as 1-propanol (0.45 mg))	Proportion dead at 24 h (German cockroaches; Table 13, per replicate, listed as 1-propanol (0.45 mg))	# dead at 24 h (German cockroaches; [1])	Proportion dead at 24 h (German cockroaches; [1])	synergy with EXXSOL D95 (German cockroaches; alone and in combination with Exxsol D95 mineral oil)	LD10 (cockroaches; as detailed in Example 9)	# dead at 24 h (German cockroaches; Table 13, per replicate (# treated 10-16), listed as 2-butanol (0.8 mg))	Proportion dead at 24 h (German cockroaches; Table 13, per replicate, listed as 2-butanol (0.8 mg))	Arcsine square root % dead (German cockroaches; [2])	Proportion dead (German cockroaches; [2])	Square root % dead (German cockroaches; [2])	# dead (German cockroaches; Table 3, male cockroaches, remainder acetone, per replicate (# tested 12-14))
CCCCO [Composition 1-butanol, 1-butanol]	0 (2×) and 1	0.000 (2×) and 0.100	1	0.029	0.877 mg/insect	1.018 mg/insect	–	–	–	–	–	–	–	–	–	–	–	–
CCCO [Composition 1-propanol, 1-propanol]	–	–	1	0.028	0.472 mg/insect	0.557 mg/insect	1 and 0 (2×)	0.083 and 0.000 (2×)	1	0.028	significant synergy	0.472 mg/insect	–	–	–	–	–	–
CCC(C)O (centres unmarked) [Composition 2-butanol, 2-butanol]	–	–	1	0.026	0.881 mg/insect	1.188 mg/insect	–	–	–	–	–	–	0 (2×) and 1	0.000 (2×) and 0.083	–	–	–	–
Hexylene glycol [Hexylene glycol (20%)]	–	–	–	–	–	–	–	–	–	–	–	–	–	–	0	0	0	1 and 0 (2×) and 3
